In BindingDB's records for doi:10.7270/Q2TX3CTT (Broad Institute, 2010):
Where a name gives a salt, the structure may show the parent alone.

target: Glycogen synthase kinase-3 beta (Homo sapiens, UniProt P49841); assay: GSK3beta kinase inhibitor potency, dose response, biochemical, luminescence, cell-free homogeneous, retest (AID 434954)
Sequence (P49841 whole entry): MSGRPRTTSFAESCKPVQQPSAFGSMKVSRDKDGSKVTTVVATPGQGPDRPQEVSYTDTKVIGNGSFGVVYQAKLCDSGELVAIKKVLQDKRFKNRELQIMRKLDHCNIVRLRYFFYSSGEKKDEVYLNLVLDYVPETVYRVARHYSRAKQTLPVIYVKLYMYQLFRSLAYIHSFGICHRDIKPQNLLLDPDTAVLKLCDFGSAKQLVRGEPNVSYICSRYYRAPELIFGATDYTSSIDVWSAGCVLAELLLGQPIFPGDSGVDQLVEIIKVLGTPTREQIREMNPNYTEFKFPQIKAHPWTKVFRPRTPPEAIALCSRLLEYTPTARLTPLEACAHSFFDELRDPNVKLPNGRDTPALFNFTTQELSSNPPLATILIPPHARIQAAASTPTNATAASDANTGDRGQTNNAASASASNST

SMILES	EC50
Nc1nc(NCCCN2CCOCC2)nc(Nc2ccc(Cl)cc2)c1[N+](=O)[O-] [N'-(4-Chloro-phenyl)-N-(3-morpholin-4-yl-propyl)-5-nitro-pyrimidine-2,4,6-triamine]	1.47 µM
O=C(Nc1ccc2c(c1)OCO2)Nc1ccc(F)cc1F	> 300 µM
O=C(CSc1ccc2nnc(-c3ccc(F)cc3)n2n1)NCc1ccco1 [2-[[3-(4-fluorophenyl)-[1,2,4]triazolo[4,3-b]pyridazin-6-yl]thio]-N-(2-furanylmethyl)acetamide]	39.9 µM
Cn1c(SCc2cccc(Br)c2)nnc1-c1ccncc1 [4-[5-(3-Bromo-benzylsulfanyl)-4-methyl-4H-[1,2,4]triazol-3-yl]-pyridine]	> 300 µM
COCCCNc1nc(N)c([N+](=O)[O-])c(NC2CCCCC2)n1 [MLS001165157]	0.86 µM
CC1(C)CC(CCNC(=O)CCl)(c2ccccc2)CCO1 (stereo not drawn) [MLS000779552]	> 300 µM
Nc1nc(NCCOCCO)nc(NCC2CCCO2)c1[N+](=O)[O-] (stereo not drawn)	16.7 µM
O=C(NCc1ccccc1)c1ccc2nccnc2c1 [N-(phenylmethyl)-6-quinoxalinecarboxamide]	> 300 µM
CCC(C)Nc1nc(N)c([N+](=O)[O-])c(NC2CCCCC2)n1 (stereo not drawn) [SMR000540397]	2.39 µM
COc1ccc(CN(CC(=O)NCc2ccccc2)C(=O)CCC(=O)Nc2cc(C)ccn2)cc1 [N-(Benzylcarbamoyl-methyl)-N-(4-methoxy-benzyl)-N'-(4-methyl-pyridin-2-yl)-succinamide]	21.3 µM
O=C(CCc1ccccc1)Nc1ncc([N+](=O)[O-])s1	> 300 µM
Cc1cc2cc(CN(CCCN3CCOCC3)C(=O)NC3CCCCC3)c(=O)[nH]c2cc1C [3-cyclohexyl-1-[(6,7-dimethyl-2-oxo-1H-quinolin-3-yl)methyl]-1-(3-morpholin-4-ylpropyl)urea]	> 300 µM
O=C(Nc1ccc(-c2nc3ccccc3o2)cc1)c1ccc(N2CCOCC2)c([N+](=O)[O-])c1 [SMR000201361]	> 300 µM
Cc1noc2c1C(c1ccc(N(C)C)cc1)C1C(=O)CC(C)(C)CC1=N2 (stereo not drawn) [MLS000565136]	> 300 µM
c1ccc(-c2nnc(-c3ccncc3)nc2-c2ccccc2)cc1	> 300 µM
O=C(NN=CC1=CC(=O)C(=O)CC1)NN=CC1=CC(=O)C(=O)CC1 [1,3-bis[[(Z)-(3-hydroxy-4-oxocyclohexa-2,5-dien-1-ylidene)methyl]amino]urea]	13.3 µM
O=C(Nc1cccnc1)c1sc(Nc2ccccc2)nc1-c1ccccc1 [SMR000261858]	> 300 µM
COCCn1c(SCC(=O)NCc2ccccc2)nc2ccccc21 [MLS001171409]	> 300 µM
C[n+]1ccccc1C=Cc1cc(Br)ccc1O [SMR000554448]	> 300 µM
Cc1ccc(-n2c(C)nc3c(cnn3-c3ccc(F)cc3)c2=O)cc1C [SMR000026457]	> 300 µM

Next, values leading:

EC50	SMILES
> 300 µM	CC(=O)Nc1ncc2c(n1)CC(c1ccco1)CC2=O (stereo not drawn) [N-(7-Furan-2-yl-5-oxo-5,6,7,8-tetrahydro-quinazolin-2-yl)-acetamide]
23.7 µM	Cn1c(SCC(=O)Nc2ccc(Cl)cn2)nnc1C1CC1 [N-(5-chloro-2-pyridinyl)-2-[(5-cyclopropyl-4-methyl-1,2,4-triazol-3-yl)thio]acetamide]
> 300 µM	COc1ccc(OC)c(C(=O)c2coc3ccc(OCC(=O)O)cc23)c1 [SMR000135205]
> 300 µM	Cc1cccc(N2CCN(C(=O)c3csc4ccccc34)CC2C)c1 (stereo not drawn) [4-(1-benzothien-3-ylcarbonyl)-2-methyl-1-(3-methylphenyl)piperazine]
> 300 µM	COc1ccc2nc(NC(=O)CSC3=NCCS3)sc2c1 [SMR000012424]
> 300 µM	COCCOC(=O)c1c(C)oc2ccc(OC(=O)c3cccs3)cc12 [MLS000111716]
> 300 µM	COc1cccc(C(=O)Nc2nc(C)cs2)c1
60 µM	CCCN(CCC)Cc1c(C(=O)NN=Cc2cccs2)nnn1-c1nonc1N
> 300 µM	COc1ccc(CCNC(=O)CN2CCOc3ccccc32)cc1OC [2-(2,3-dihydro-1,4-benzoxazin-4-yl)-N-[2-(3,4-dimethoxyphenyl)ethyl]acetamide]
> 300 µM	CCOC(=O)c1c(-c2ccc(C)o2)csc1N
> 300 µM	CCOC(=O)/C(C#N)=C/c1cn(CCC(=O)O)nc1-c1ccccc1 [3-[4-[(E)-2-cyano-3-ethoxy-3-oxoprop-1-enyl]-3-phenyl-1-pyrazolyl]propanoic acid]
> 300 µM	Cc1ccc2c(c1)N(C(=O)CCC(=O)NCc1ccccc1)CC(C)O2 (stereo not drawn)
4.64 µM	CCOC(=O)C1C(C)=Nc2ncnn2C1c1c[nH]c2ccccc12 (stereo not drawn) [MLS000089006]
96.9 µM	CCOc1cccc(-c2c(C(=O)NN=C(C)c3cccs3)nnn2-c2nonc2N)c1 [1-(4-azanyl-1,2,5-oxadiazol-3-yl)-5-(3-ethoxyphenyl)-N-(1-thiophen-2-ylethylideneamino)-1,2,3-triazole-4-carboxamide]
> 300 µM	O=C(CN1C(=O)c2ccccc2C1=O)Nc1ccccc1F [2-[1,3-bis(oxidanylidene)isoindol-2-yl]-N-(2-fluorophenyl)ethanamide]
> 300 µM	CCc1nn(CC(=O)NCCC(C)C)c(=O)c2cc3c(OC)cccc3n12 [2-(4-ethyl-9-methoxy-1-oxo-[1,2,4]triazino[4,5-a]indol-2-yl)-N-(3-methylbutyl)acetamide]
> 300 µM	Cc1c(O)ccc2c(-c3ccccc3)cc(=O)oc12 [7-hydroxy-8-methyl-4-phenyl-1-benzopyran-2-one]
2.33 µM	Nc1nc(NCC2CCCO2)nc(Nc2ccccc2F)c1[N+](=O)[O-] (stereo not drawn) [MLS000769541]
> 300 µM	O=Cc1cc(CCC(=O)O)ccc1O [SMR000639316]
> 300 µM	COc1ccc2oc(C)c(C(=O)c3ccc(C)cc3)c2c1 [(5-methoxy-2-methyl-3-benzofuranyl)-(4-methylphenyl)methanone]
1.99 µM	COc1ccc2occ(C(=O)c3coc4ccc(O)c(CN(C)C)c34)c2c1 [[4-[(dimethylamino)methyl]-5-oxidanyl-1-benzofuran-3-yl]-(5-methoxy-1-benzofuran-3-yl)methanone;hydrochloride]
> 300 µM	CCC(=O)n1nc(-c2ccc(OC)cc2)nc1N [MLS000043495]
> 300 µM	CC(C)(C)c1ccc(OCC(=O)NCCN2CCCC2)cc1 [2-(4-tert-butylphenoxy)-N-(2-pyrrolidin-1-ylethyl)ethanamide;hydrochloride]
4.11 µM	Cc1cccc(Nc2nc(NCC3CCCO3)nc(N)c2[N+](=O)[O-])c1 (stereo not drawn) [5-Nitro-N-(tetrahydro-furan-2-ylmethyl)-N'-m-tolyl-pyrimidine-2,4,6-triamine]
> 300 µM	CC(=O)N1CCC(=O)Nc2ccc([N+](=O)[O-])cc21 [MLS000728217]
> 300 µM	COc1ccc(OC)c(Nc2nc(NCCC(C)C)nc(N)c2[N+](=O)[O-])c1 [4-N-(2,5-dimethoxyphenyl)-2-N-(3-methylbutyl)-5-nitropyrimidine-2,4,6-triamine]
4.54 µM	O=C(CCl)Oc1ccc2occ(C(=O)c3cccs3)c2c1 [SMR000121351]
> 300 µM	CCCN(CCC)c1nc(N)nc(-c2cc(Cl)ccc2OC)n1 [MLS000538209]
